Converted amounts (≈) assume the structure as drawn. Where two headings read alike, the source gives them in different places.
Key:
[1] = molecular target: T1, full-length beta-Catenin (Uniprot ID P35222) (Homo sapiens, UniProt P35222); assay: Fluorescence polarization IC50 (beta-catenin / 5FAM-TCF4 10-53 competition); assay type: binding
T1 construct: 10 nM full-length beta-Catenin (Uniprot ID P35222)
T1 sequence (P35222 1-781): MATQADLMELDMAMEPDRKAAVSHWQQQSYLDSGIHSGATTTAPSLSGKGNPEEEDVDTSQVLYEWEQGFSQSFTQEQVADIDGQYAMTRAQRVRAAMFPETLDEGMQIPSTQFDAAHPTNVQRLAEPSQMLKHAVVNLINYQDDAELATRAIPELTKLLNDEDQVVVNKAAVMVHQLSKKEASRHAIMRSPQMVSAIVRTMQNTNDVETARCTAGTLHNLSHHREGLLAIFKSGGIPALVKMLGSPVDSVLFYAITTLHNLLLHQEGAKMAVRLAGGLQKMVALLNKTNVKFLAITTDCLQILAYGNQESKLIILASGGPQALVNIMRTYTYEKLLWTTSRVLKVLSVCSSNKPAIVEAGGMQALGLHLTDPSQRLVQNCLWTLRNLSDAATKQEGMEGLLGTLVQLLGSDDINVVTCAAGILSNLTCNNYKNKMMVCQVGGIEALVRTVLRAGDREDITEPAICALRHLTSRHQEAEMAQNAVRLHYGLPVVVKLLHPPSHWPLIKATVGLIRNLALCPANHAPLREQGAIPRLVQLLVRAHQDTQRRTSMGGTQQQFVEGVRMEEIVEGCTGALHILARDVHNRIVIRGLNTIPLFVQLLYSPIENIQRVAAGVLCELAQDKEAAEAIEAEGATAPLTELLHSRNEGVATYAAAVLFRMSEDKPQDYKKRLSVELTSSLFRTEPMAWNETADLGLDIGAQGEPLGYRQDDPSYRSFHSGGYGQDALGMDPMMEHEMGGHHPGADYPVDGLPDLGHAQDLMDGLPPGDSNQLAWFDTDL

CHI Log D procedure = assay type: physicochemical; settings: for CHI Log D: pH 7.4; for chromatographic logD: pH 7.4, CHI Log D
Solubility in PBS = assay type: physicochemical
Procedure, shortened: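 Read-out is the HPLC peak area of the supernatant from ultracentrifuged PBS solution, scaled against a 50 μM peptide DMSO injection; value reported as [(PBS area)/(DMSO area)]*50 uM.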

[2] = molecular target: T2, beta-catenin/TCF4 engagement (Homo sapiens, UniProt P35222); assay: Nano-BRET target engagement assay (B-cat-Halo & TCF4-Luc in HEK293 cells); assay type: cell-based
T2 construct: expressed in transfected cells; host or cells: HEK293
T2 sequence (P35222 1-781): T1 sequence (P35222 1-781)

[3] = fluorescence polarization, read-out: beta-Catenin FP IC50
[4] = absolute IC50, read-out: NanoBRET Abs IC50

Compound: CC[C@@H]1NC(=O)[C@H](CC(=O)O)NC(=O)[C@]2(CC=CCCCC3(CCCC=CCCCCCC[C@@](C)(C(=O)N[C@@H](Cc4ccccc4)C(=O)N[C@@H](Cc4csc5ccccc45)C(=O)N[C@@H](Cc4c[nH]cn4)C(N)=O)NC(=O)[C@H](CCC(N)=O)NC(=O)[C@H](Cc4ccccc4)NC(=O)[C@H](C)NC(=O)[C@H](C)NC(=O)[C@H](CCC(=O)O)NC(=O)[C@H](CC(=O)O)NC3=O)NC1=O)CCCN2C(C)=O (stereo partly drawn) [I-571, Ac-PL3-Asp-Abu-B5-Asp-Glu-Ala-Ala-Phe-Gln-S8-Phe-BztA-His-NH2]
- IC50 [1, 3]: 32 nM
- IC50 ([1]; read-out: FP EC50): 32 nM
- CHI Log D (CHI Log D procedure): 2.245
- Solubility (Solubility in PBS): 24 µM (≈ 44.7 µg/mL)
- IC50 [2, 4]: 15600 nM

Compound: CC[C@@H]1NC(=O)[C@H](CC(=O)O)NC(=O)[C@]2(CC=CCCCC3(CCCC=CCCCCCC[C@@](C)(C(=O)N[C@@H](Cc4ccccc4)C(=O)N[C@@H](Cc4csc5ccccc45)C(=O)N[C@@H](CCC(N)=O)C(N)=O)NC(=O)[C@H](CC(N)=O)NC(=O)[C@H](Cc4ccccc4)NC(=O)[C@H](C)NC(=O)[C@H](C)NC(=O)[C@H](CC(=O)O)NC(=O)[C@H](CC(=O)O)NC3=O)NC1=O)CCCN2C(C)=O (stereo partly drawn) [I-573, Ac-PL3-Asp-Abu-B5-Asp-Asp-Ala-Ala-Phe-Asn-S8-Phe-BztA-Gln-NH2]
- IC50 [1, 3]: 36 nM
- IC50 ([1]; read-out: FP EC50): 36 nM
- CHI Log D (CHI Log D procedure): 2.116
- Solubility (Solubility in PBS): 49 µM (≈ 89.5 µg/mL)
- IC50 [2, 4]: 33300 nM

Compound: CC[C@@H]1NC(=O)[C@H](CC(=O)O)NC(=O)[C@]2(CC=CCCCC3(CCCC=CCCCCCC[C@@](C)(C(=O)N[C@@H](Cc4ccccc4)C(=O)N[C@@H](Cc4csc5ccccc45)C(=O)N[C@@H](Cc4c[nH]cn4)C(N)=O)NC(=O)[C@H](CC(N)=O)NC(=O)[C@H](Cc4ccccc4)NC(=O)[C@H](C)NC(=O)[C@H](C)NC(=O)[C@H](CC(=O)O)NC(=O)[C@H](CC(=O)O)NC3=O)NC1=O)CCCN2C(C)=O (stereo partly drawn) [I-574, Ac-PL3-Asp-Abu-B5-Asp-Asp-Ala-Ala-Phe-Asn-S8-Phe-BztA-His-NH2]
- IC50 [1, 3]: 36 nM
- IC50 ([1]; read-out: FP EC50): 36 nM
- CHI Log D (CHI Log D procedure): 2.16
- Solubility (Solubility in PBS): 48 µM (≈ 88.1 µg/mL)
- IC50 [2, 4]: > 20000 nM

Compound: CC(=O)N1CCC[C@]12CC=CCCCC1(CCCC=CCCCCCC[C@@](C)(C(=O)N[C@@H](Cc3ccccc3)C(=O)N[C@@H](Cc3csc4ccccc34)C(=O)N[C@@H](CCC(N)=O)C(N)=O)NC(=O)[C@H](CC(N)=O)NC(=O)[C@H](Cc3ccccc3)NC(=O)[C@H](C)NC(=O)[C@H](C)NC(=O)[C@H](CCC(=O)O)NC(=O)[C@H](CC(=O)O)NC1=O)NC(=O)[C@H](CC(C)C)NC(=O)[C@H](CC(=O)O)NC2=O (stereo partly drawn) [I-576, Ac-PL3-Asp-Leu-B5-Asp-Glu-Ala-Ala-Phe-Asn-S8-Phe-BztA-Gln-NH2]
- IC50 [1, 3]: 23 nM
- IC50 ([1]; read-out: FP EC50): 23 nM
- CHI Log D (CHI Log D procedure): 2.348
- Solubility (Solubility in PBS): 46 µM (≈ 86 µg/mL)
- IC50 [2, 4]: 11100 nM

Compound: CC(=O)N1CCC[C@]12CC=CCCCC1(CCCC=CCCCCCC[C@@](C)(C(=O)N[C@@H](Cc3ccccc3)C(=O)N[C@@H](Cc3csc4ccccc34)C(=O)N[C@@H](CCC(N)=O)C(N)=O)NC(=O)[C@H](CC(N)=O)NC(=O)[C@H](Cc3ccccc3)NC(=O)[C@H](C)NC(=O)[C@H](C)NC(=O)[C@H](CCC(=O)O)NC(=O)[C@H](CC(=O)O)NC1=O)NC(=O)[C@H](CC(C)C)NC(=O)[C@H](CC(=O)O)NC2=O (stereo partly drawn) [I-577, Ac-PL3-Asp-Leu-B5-Asp-Glu-Ala-Ala-Phe-Asn-S8-Phe-BztA-Gln-NH2]
- IC50 [1, 3]: 13 nM
- IC50 ([1]; read-out: FP EC50): 13 nM
- CHI Log D (CHI Log D procedure): 2.376
- Solubility (Solubility in PBS): 47 µM (≈ 87.9 µg/mL)
- IC50 [2, 4]: 10400 nM

Compound: CC(=O)N1CCC[C@]12CC=CCCCC1(CCCC=CCCCCCC[C@@](C)(C(=O)N[C@@H](Cc3ccccc3)C(=O)N[C@@H](Cc3csc4ccccc34)C(=O)N[C@@H](Cc3c[nH]cn3)C(N)=O)NC(=O)[C@H](CC(N)=O)NC(=O)[C@H](Cc3ccccc3)NC(=O)[C@H](C)NC(=O)[C@H](C)NC(=O)[C@H](CC(=O)O)NC(=O)[C@H](CC(=O)O)NC1=O)NC(=O)[C@H](CC(C)(C)C)NC(=O)[C@H](CC(=O)O)NC2=O (stereo partly drawn) [I-582, Ac-PL3-Asp-Npg-B5-Asp-Asp-Ala-Ala-Phe-Asn-S8-Phe-BztA-His-NH2]
- IC50 [1, 3]: 17.5 nM
- chromatographic logD (CHI Log D procedure): 2.5
- Solubility (Solubility in PBS; Solubility (uM)): 22 µM (≈ 41.3 µg/mL)
- IC50 [2, 4]: 15800 nM

Compound: CC(=O)N1CCC[C@]12CC=CCCCC1(CCCC=CCCCCCC[C@@](C)(C(=O)N[C@@H](Cc3ccccc3)C(=O)N[C@@H](Cc3csc4ccccc34)C(=O)N[C@@H](CCC(N)=O)C(N)=O)NC(=O)[C@H](CC(N)=O)NC(=O)[C@H](Cc3ccccc3)NC(=O)[C@H](C)NC(=O)[C@H](C)NC(=O)[C@H](CCC(=O)O)NC(=O)[C@H](CC(=O)O)NC1=O)NC(=O)[C@H](CC1CCCCC1)NC(=O)[C@H](CC(=O)O)NC2=O (stereo partly drawn) [I-620, Ac-PL3-Asp-Cha-B5-Asp-Glu-Ala-Ala-Phe-Asn-S8-Phe-BztA-Gln-NH2]
- IC50 [1, 3]: 35 nM
- IC50 ([1]; read-out: FP EC50): 35 nM
- CHI Log D (CHI Log D procedure): 2.688
- Solubility (Solubility in PBS): 48 µM (≈ 91.6 µg/mL)
- IC50 [2, 4]: 12000 nM
- IC50 ([2]; read-out: NanoBRET IC50): 5800 nM

Compound: CC(=O)N1CCC[C@]12CC=CCCCC1(CCCC=CCCCCCC[C@@](C)(C(=O)N[C@@H](Cc3ccccc3)C(=O)N[C@@H](Cc3csc4ccccc34)C(N)=O)NC(=O)[C@H](CCCNC(N)=O)NC(=O)[C@H](Cc3ccccc3)NC(=O)[C@H](C)NC(=O)[C@H](C)NC(=O)[C@H](CCC(=O)O)NC(=O)[C@H](CC(=O)O)NC1=O)NC(=O)[C@H](CC(C)C)NC(=O)[C@H](CC(=O)O)NC2=O (stereo partly drawn) [I-629, Ac-PL3-Asp-Leu-B5-Asp-Glu-Ala-Ala-Phe-Cit-S8-Phe-BztA-NH2]
- IC50 [1, 3]: 36 nM
- IC50 ([1]; read-out: FP EC50): 685 nM
- CHI Log D (CHI Log D procedure): 3.109
- Solubility (Solubility in PBS): 40 µM (≈ 71.4 µg/mL)
- IC50 [2, 4]: 30000 nM

Compound: CC[C@H](C)[C@@H]1NC(=O)[C@H](CC(=O)O)NC(=O)[C@]2(CC=CCCCC3(CCCC=CCCCCCC[C@@](C)(C(=O)N[C@@H](Cc4ccccc4)C(=O)N[C@@H](Cc4csc5ccccc45)C(=O)N[C@@H](CCC(N)=O)C(N)=O)NC(=O)[C@H](CCC(N)=O)NC(=O)[C@H](Cc4ccccc4)NC(=O)[C@H](C)NC(=O)[C@H](CCC(N)=O)NC(=O)[C@H](CCC(=O)O)NC(=O)[C@H](CC(=O)O)NC3=O)NC1=O)CCCN2C(C)=O (stereo partly drawn) [I-654, Ac-PL3-Asp-Ile-B5-Asp-Glu-Gln-Ala-Phe-Gln-S8-Phe-BztA-Gln-NH2]
- IC50 [1, 3]: 20 nM
- IC50 ([1]; read-out: FP EC50): 20 nM
- CHI Log D (CHI Log D procedure): 2.121
- Solubility (Solubility in PBS): 47 µM (≈ 91.2 µg/mL)
- IC50 [2, 4]: 15000 nM

Compound: CC[C@H](C)[C@@H]1NC(=O)[C@H](CC(=O)O)NC(=O)[C@]2(CC=CCCCC3(CCCC=CCCCCCC[C@@](C)(C(=O)N[C@@H](Cc4ccccc4)C(=O)N[C@@H](Cc4csc5ccccc45)C(=O)N[C@@H](CCC(N)=O)C(N)=O)NC(=O)[C@H](CCC(N)=O)NC(=O)[C@H](Cc4ccccc4)NC(=O)[C@H](CO)NC(=O)[C@H](C)NC(=O)[C@H](CCC(=O)O)NC(=O)[C@H](CC(=O)O)NC3=O)NC1=O)CCCN2C(C)=O (stereo partly drawn) [I-662, Ac-PL3-Asp-Ile-B5-Asp-Glu-Ala-Ser-Phe-Gln-S8-Phe-BztA-Gln-NH2]
- IC50 [1, 3]: 26 nM
- IC50 ([1]; read-out: FP EC50): 26 nM
- CHI Log D (CHI Log D procedure): 2.125
- Solubility (Solubility in PBS): 46 µM (≈ 87.4 µg/mL)
- IC50 [2, 4]: 16100 nM

Compound: CC(=O)N1CCC[C@]12CC=CCCCC1(CCCC=CCCCCCC[C@@](C)(C(=O)N[C@@H](Cc3ccccc3)C(=O)N[C@@H](Cc3csc4ccccc34)C(=O)N[C@@H](CCC(N)=O)C(N)=O)NC(=O)[C@H](CC(N)=O)NC(=O)[C@H](Cc3ccccc3)NC(=O)[C@H](C)NC(=O)[C@H](C)NC(=O)[C@H](CCC(=O)O)NC(=O)[C@H](CC(=O)O)NC1=O)NC(=O)[C@H](CC(C)(C)C)NC(=O)[C@H](CC(=O)O)NC2=O (stereo partly drawn) [I-677, Ac-PL3-Asp-Npg-B5-Asp-Glu-Ala-Ala-Phe-Asn-S8-Phe-BztA-Gln-NH2]
- IC50 [1, 3]: 22 nM
- chromatographic logD (CHI Log D procedure): 2.45
- Solubility (Solubility in PBS; Solubility (uM)): 49 µM (≈ 92.3 µg/mL)
- IC50 [2, 4]: 6700 nM
